Test results taken from publication PMC12037037 (Proceedings of the National Academy of Sciences of the …, 2025).
“Also recorded” adds a separate entry of the source.

What was measured:
5-HT7 = 5-HT7 (Homo sapiens, UniProt P34969); experiment: Functional assay at 5-HT7 (Fig. S4); assay type: cell-based
Text: Figure S4. […] Radioligand binding (RLB) (top) and IP1 functional assays (bottom) for 5-HT1A (A), 5-HT5a (B), 5-HT6 (C), and 5-HT7 (D) receptors. Agonist or antagonist mode is indicated in the title of each graph. Data represent the mean ± SEM of 2 technical replicates.
5-carboxamidotryptamine; ND = not determined for incomplete curves.
(1 picture or pasted object on this page, not shown here)

[1] = target: T1, U2OS cells expressing 5-HT2ARs (β-arrestin recruitment) (Homo sapiens, UniProt P28223); experiment: PathHunter β-arrestin agonist assay; assay type: cell-based; details: free base
T1 construct: host or cells: U2OS
Method: (D) The PathHunter® β-arrestin assay was used to
b-Arrestin Activation (PathHunter®). The 5-HT2AR PathHunter® b-arrestin agonist assay was performed at Eurofins
DiscoverX (Frement, CA, Catalog # 86-0001P-2090AG).
The PathHunter® β-arrestin assay monitors the activation of a GPCR in a homogenous, non-imaging assay format
using a technology developed by DiscoverX called Enzyme Fragment Complementation (EFC) with β-galactosidase (β-Gal)
as the functonal reporter.
PK and EA are then expressed as fusion proteins in U2OS cells,
with PK fused to the GPCR of interest, and EA fused to b-arrestin. When the target GPCR is activated and β-arrestin is

[2] = target: T2, 5-HT2A receptors (Gi1, Gi3 activation) (Homo sapiens, UniProt P28223); experiment: BRET-based assays of Gi1 and Gi3 activation; assay type: cell-based
T2 construct: expressed in transfected cells; host or cells: HEK293T (transient)

[3] = target: psychLight S242A^5.46 (murinized variant) (Homo sapiens, UniProt P28223, S242A); experiment: PsychLight assay, S242A^5.46 mutant; assay type: cell-based
Method: PsychLight Assays. Psychlight assays were performed using a previously published method (15) with slight modifications.
Briefly, a solution of PSYLI2 cells suspended in DMEM containing 10% FBS with 5% penicillin-streptomycin was added to
poly-D-lysine-coated glass bottom 96-well plates. The cells were plated at a density of 60,000 cells/well for the inner 60
wells and 90,000 cells/well for the outer 36 wells and incubated at 37°C with 5% CO2 for 18–24 h prior to each experiment.
On the day of each experiment, the DMEM solution was replaced with 100 µL/well Hoechst solution (2 µM in HBSS) and
incubated for 30 min at 37°C with 5% CO2. Plates were then washed 3x 200 µL HBSS and replaced with 160 µL/well of
assay buffer (HBSS with 0.5 mM HEPES buffer, adjusted to pH = 7.4 with 1 M NaOH) and incubated for 30 min (37°C, 5%
CO2). The cells were then imaged on a Thermo Scientific CellInsight CX7 LZR High Content Analysis Platform at 10X
(37°C, 5% CO2). Images from nine regions of interest (ROI) per well were obtained following the default ROI pattern with
no bias to location and no overlap of the ROIs. Baseline images were collected prior to drug addition. Following baseline
imaging, cells were treated with 40 µL of drugs at the indicated concentrations (final solutions contained 0.2% DMSO) and
incubated (37°C, 5% CO2) for 1 h before treatment images were acquired using identical parameters. In the case of
activation was quantified using the built-in Target Validation Assay (version 6.0.1.4021) on the Thermo Scientific HCS Studio
Cellomics data analysis program. Primary objects were identified and validated using the Hoechst stain and secondary
objects (psychLight signal) were defined as signal within 12 pixels of the primary objects. PsychLight signal was calculated
as a ΔF/F according to the following equation:
ΔF = psychLight activation (treatment) − psychLight activation (baseline)
F psychLight activation (baseline)
PsychLight S242A5.46 plasmid construction and transfection. To introduce the serine to alanine mutation in […]

male C57BL/6J mice = experiment: Head-twitch antagonism of an LSD dose response (Transpharmation); assay type: in vivo; details: +JRT PreTx (1 mg/kg IP, 30 min prior) then VEH (1% DMSO); -JRT 0.7 ± 0.3
Method: Head-Twitch Response Assay. The HTR assay was performed using equal numbers of male and female C57BL/6J mice.
The mice were obtained from The Jackson Laboratory (Sacramento, CA) and were approximately 8 – 12 weeks old at the time of the experiments. After compound administration, animals were placed into an empty arena (40 cm x 40 cm) and filmed for 20 min. The arena was cleaned with 70% ethanol between trials.

C57BL/6J mice = experiment: Prepulse inhibition (PPI); assay type: in vivo
Method: Amphetamine-Induced Locomotion. The amphetamine-induced hyperlocomotion assay was performed using male and female C57BL/6J mice that were approximately 8 weeks old at the time of the experiments. Animals were first placed in the test arena (40 cm x 40 cm) for 15 min to obtain a basal reading of locomotion and habituate them to the testing arena.
Next, animals were administered (+)-JRT (1 mg/kg) or VEH (2.5 mL/kg, i.p) and placed back in the test arena. After 15 min, the animals were administered (+)-amphetamine (3 mg/kg) or VEH (2.5 mL/kg) and placed back in the test arena for 60 minutes. Locomotion during the entire experiment was quantified using ANYmaze Video Tracking System, version 7.07 (Stoelting Co.). The test arena was cleaned thoroughly with 70% ethanol between trials.
PCP-Induced Locomotion. The PCP-induced hyperlocomotion assay was performed by Psychogenics using male C57BL/6J mice that were approximately 8 weeks old at the time of the experiments. The experiment was performed during the animal’s light cycle phase. […] Baseline activity was recorded for 30 min. […] Locomotion was assessed using consecutive infrared beam breaks. […]
Next, startle response was measured in response to five 40 ms sound bursts of 80, 90, 100, 110, or 120 dB (random order, fixed intertrial interval). […] Percent PPI was calculated according to the formula: 100 – [(pre-pulse + pulse)/pulse alone) × 100. […]

Sequence of psychLight S242A^5.46 (murinized variant) (P28223 with tags, fused parts or gaps S242A): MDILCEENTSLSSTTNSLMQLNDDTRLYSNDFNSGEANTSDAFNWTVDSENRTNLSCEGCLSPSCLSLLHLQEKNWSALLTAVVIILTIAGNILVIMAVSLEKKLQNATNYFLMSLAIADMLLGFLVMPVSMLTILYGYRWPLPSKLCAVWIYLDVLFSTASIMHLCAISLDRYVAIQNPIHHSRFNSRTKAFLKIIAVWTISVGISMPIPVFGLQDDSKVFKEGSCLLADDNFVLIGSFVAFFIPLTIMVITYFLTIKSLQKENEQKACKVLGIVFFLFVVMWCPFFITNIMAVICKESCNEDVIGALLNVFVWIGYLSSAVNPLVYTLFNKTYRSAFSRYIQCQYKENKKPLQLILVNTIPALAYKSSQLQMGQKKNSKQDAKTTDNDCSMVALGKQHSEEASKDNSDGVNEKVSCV
Sequence of psychLight S242A^5.46 (murinized variant) (P42212 with tags, fused parts or gaps partner): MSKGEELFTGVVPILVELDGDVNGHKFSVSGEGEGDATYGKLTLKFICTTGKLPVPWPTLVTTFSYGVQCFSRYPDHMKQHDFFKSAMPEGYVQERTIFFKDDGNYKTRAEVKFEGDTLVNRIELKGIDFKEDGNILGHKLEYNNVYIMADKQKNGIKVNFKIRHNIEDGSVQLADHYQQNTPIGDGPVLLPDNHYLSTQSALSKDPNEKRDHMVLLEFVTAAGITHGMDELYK
T1 sequence (P28223 whole entry): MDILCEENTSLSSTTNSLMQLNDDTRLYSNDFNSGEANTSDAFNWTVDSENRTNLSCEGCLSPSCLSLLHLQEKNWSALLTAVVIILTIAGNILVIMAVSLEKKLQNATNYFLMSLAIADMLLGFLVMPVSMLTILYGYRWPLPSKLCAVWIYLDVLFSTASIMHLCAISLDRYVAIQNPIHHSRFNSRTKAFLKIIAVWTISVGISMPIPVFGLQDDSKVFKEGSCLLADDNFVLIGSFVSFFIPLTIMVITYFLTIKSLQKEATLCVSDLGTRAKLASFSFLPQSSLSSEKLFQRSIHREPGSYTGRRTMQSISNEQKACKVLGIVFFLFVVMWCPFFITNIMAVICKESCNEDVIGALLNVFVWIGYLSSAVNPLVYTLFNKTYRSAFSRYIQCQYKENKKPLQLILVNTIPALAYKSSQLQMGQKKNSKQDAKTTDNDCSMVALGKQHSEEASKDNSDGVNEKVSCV
Sequence of 5-HT7 (P34969 whole entry): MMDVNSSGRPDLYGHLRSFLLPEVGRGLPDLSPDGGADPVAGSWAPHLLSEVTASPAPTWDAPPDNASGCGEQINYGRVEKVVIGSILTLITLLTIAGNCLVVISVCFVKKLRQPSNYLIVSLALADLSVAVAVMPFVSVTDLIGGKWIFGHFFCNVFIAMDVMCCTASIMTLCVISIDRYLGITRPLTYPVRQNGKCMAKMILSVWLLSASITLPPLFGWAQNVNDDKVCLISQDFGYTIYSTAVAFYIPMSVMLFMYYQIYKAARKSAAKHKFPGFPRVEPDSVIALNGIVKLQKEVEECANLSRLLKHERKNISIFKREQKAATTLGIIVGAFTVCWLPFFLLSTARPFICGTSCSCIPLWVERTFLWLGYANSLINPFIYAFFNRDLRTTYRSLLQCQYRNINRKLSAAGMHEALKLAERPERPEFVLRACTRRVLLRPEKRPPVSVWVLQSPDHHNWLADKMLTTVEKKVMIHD
T2 sequence (P28223 whole entry): as the sequence (P28223 whole entry) above

CCN(CC)C(=O)[C@@H]1C=C2c3cccc4ccn(c34)C[C@H]2N(C)C1 [(+)-JRT]
Functional activity at 5-HT7, agonist mode (5-HT7): agonist or partial agonist | β-arrestin recruitment through 5-HT2A receptor activation [1]: potent partial agonist; also recorded: not able to recruit β-arrestin through 5-HT2A receptor activation with high efficacy | Gi activation following stimulation of 5-HT2A receptors [2]: does not activate | EC50 ([3]; psychLight (S242A^5.46): EC50, agonist mode): 39 nM | EC50 ([3]; psychLight (S242A^5.46): EC50, antagonist mode, cotreated with 10 μM serotonin (5-HT + compound)): 473 nM | Emax ([3]; read-out: psychLight (S242A^5.46): EMax): 32% | Head-twitch response over 20 min (Figure S9) (male C57BL/6J mice): 3.9 ± 0.567 | Deficits in prepulse inhibition induced by the compound itself (C57BL/6J mice; 1 mg/kg IP): did not induce any deficits in PPI | Effect of pretreatment on MK-801-induced deficits in prepulse inhibition (C57BL/6J mice; 1 mg/kg IP pretreatment, MK-801): did not exacerbate
